# Measured values as given in patent US20250011300A1, “PIPERAZINYLSULFONYLARYL COMPOUNDS FOR TREATMENT OF BACTERIAL INFECTIONS” (Hoffmann-La Roche Inc., priority 2021, published 2025).
# Experiments:
# [1] = molecular target: Escherichia coli LpxH (UDP-2,3-diacylglucosamine hydrolase) (Escherichia coli (strain K12), UniProt P43341); assay: 50% Inhibitory Concentration (IC50) to LpxH, UMP/CMP-Glo Glycosyltransferase Assay kit; assay type: biochemical
# Experimental: Example 121: 50% Inhibitory Concentration (IC50) to UDP-2,3-diacylglucosamine hydrolase (LpxH)
# The inhibitory potency of molecules to UDP-2,3-diacylglucosamine hydrolase (LpxH) was determined using the UMP/CMP-Glo™ Glycosyltransferase Assay kit. LpxH hydrolyzes the pyrophosphate bond of UDP-2,3-diacylglucosamine (UDP-DAG) to yield 2,3-diacylglucosamine 1-phosphate (lipid X) and UMP. The assay kit could quantify the UMP production by convert the UMP to ATP and generate light in a luciferase reaction. The compound's effect on the LpxH activity is detected by measuring the light using a luminometer (Envision).
# E. coli (ATCC 25922) = assay: Minimal Inhibitory Concentration (MIC) assay, E. coli; assay type: cell-based; details: Escherichia coli, ATCC25922; E. coli ATCC 25922, CAMHB, 20 hours at 35° C.; read-out: MIC E. coli ATCC 25922
# Experimental: (§1) Example 122: Minimal Inhibitory Concentration Protocol (MIC) Assay
# (§2) The in vitro potency of compounds to inhibit E. coli (ATCC 25922) and K. pneumonia (ATCC 43816) growth was assessed by MIC (Minimal Inhibitory Concentration) assay. Samples were prepared from 10 mM DMSO stock solutions. After serial 2-fold dilution in DMSO in a master plate (Greiner, Cat No: 651201), 180 μL sterile distilled water was added to 20 μL each aliquot of the samples. Then 10 μL diluted compounds were transferred into a new assay plate (Costar, 3599).
# (§3) The growth medium Cation-Adjusted Mueller Hinton Broth (CAMHB) was prepared by adding the 20 mg per liter CaCl2) and 20 mg per liter MgCl2 into the MHB medium (Jianglai Company, sterilized).
# (§4) Vials of each of the test microorganisms were maintained frozen in the vapor phase of a liquid nitrogen freezer. The bacteria E. coli ATCC 25922 (KWIKSTIK, 0335K) and K. pneumonia ATCC 43816 were taken out from liquid nitrogen freezer, then thawed in room temperature, and diluted in the CAMHB medium to achieve a final inoculum of 5×10^5 CFU/mL. 90 μL CAMHB with bacteria was dispensed to the assay plate and pipetted 5 times.
# (§5) Then the assay plates were incubated for 20 hours at 35° C. in ambient air. Following incubation, the MIC (μg/mL), the lowest concentration of drug that inhibits visible growth of the microorganism was read and recorded throw the microscope.
# [2] = system: K. pneumonia (ATCC 43816); assay: Minimal Inhibitory Concentration (MIC) assay, K. pneumonia; assay type: cell-based; details: Klebsiella pneumoniae; K. pneumoniae ATCC43816, CAMHB, 20 hours at 35° C.; read-out: MIC K. pneumoniae ATCC43816
# Experimental: as §1, §2, §3, §4, §5
# Chain of Escherichia coli LpxH (UDP-2,3-diacylglucosamine hydrolase) (P43341 whole entry): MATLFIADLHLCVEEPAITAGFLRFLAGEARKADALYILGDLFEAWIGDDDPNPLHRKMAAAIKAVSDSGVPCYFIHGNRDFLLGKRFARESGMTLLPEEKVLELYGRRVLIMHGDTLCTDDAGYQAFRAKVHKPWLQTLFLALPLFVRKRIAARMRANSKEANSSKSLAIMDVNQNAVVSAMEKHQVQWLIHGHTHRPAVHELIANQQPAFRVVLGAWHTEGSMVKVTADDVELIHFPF
SMILES,IC50 [1] [nM],MIC (E. coli (ATCC 25922)) [µg/mL],MIC [2] [µg/mL]
"NC1(C2CN(CC3CC(=O)N(c4ccc(S(=O)(=O)N5CCN(c6cc(C(F)(F)F)cc(Cl)n6)CC5)cc4)C3)C2)CC1 (stereo not drawn) [Example 39, 4-[[3-(1-Aminocyclopropyl)azetidin-1-yl]methyl]-1-[4-[4-[6-chloro-4-(trifluoromethyl)-2-pyridyl]piperazin-1-yl]sulfonylphenyl]pyrrolidin-2-one]",13,0.96,1.92
"NCC1CN(c2ccc(S(=O)(=O)N3CCN(c4cc(C(F)(F)F)cc(Cl)n4)CC3)cc2F)C(=O)O1 (stereo not drawn) [Example 63, 5-(Aminomethyl)-3-[4-[4-[6-chloro-4-(trifluoromethyl)-2-pyridyl]piperazin-1-yl]sulfonyl-2-fluoro-phenyl]oxazolidin-2-one]",204,1.83,7.3
"O=C1CC2(CCCCN2)CN1c1ccc(S(=O)(=O)N2CCN(c3cc(C(F)(F)F)cc(Cl)n3)CC2)cc1 (stereo not drawn) [Example 10, 2-[4-[4-[6-Chloro-4-(trifluoromethyl)-2-pyridyl]piperazin-1-yl]sulfonylphenyl]-2,6-diazaspiro[4.5]decan-3-one]",19.7,1.05,4.2
"N[C@@H]1CC(=O)N(c2ccc(S(=O)(=O)N3CCN(c4cc(C(F)(F)[C@H]5COCCO5)cc(Cl)n4)CC3)cc2)C1 [Example 103, (4R)-4-amino-1-[4-[4-[6-chloro-4-[[(2R)-1,4-dioxan-2-yl]-difluoro-methyl]-2-pyridyl]piperazin-1-yl]sulfonylphenyl]pyrrolidin-2-one]",3.5,0.89,0.89
"NC1CC(=O)N(c2ccc(S(=O)(=O)N3CCN(c4cc(C(F)F)cc(Cl)n4)CC3)cc2)C1 (stereo not drawn) [Example 68, 4-Amino-1-[4-[4-[6-chloro-4-(difluoromethyl)-2-pyridyl]piperazin-1-yl]sulfonylphenyl]pyrrolidin-2-one]",259,2.59,10.3
"O=C1OC(CN2CCNCC2)CN1c1ccc(S(=O)(=O)N2CCN(c3cc(C(F)(F)F)cc(Cl)n3)CC2)cc1 (stereo not drawn) [Example 29, 3-[4-[4-[6-Chloro-4-(trifluoromethyl)-2-pyridyl]piperazin-1-yl]sulfonylphenyl]-5-(piperazin-1-ylmethyl)oxazolidin-2-one]",25.5,1.96,1.96
"CN(C)CC1CN(CC2CC(=O)N(c3ccc(S(=O)(=O)N4CCN(c5cc(C(F)(F)F)cc(Cl)n5)CC4)cc3)C2)C1 (stereo not drawn) [Example 37, 1-[4-[4-[6-Chloro-4-(trifluoromethyl)-2-pyridyl]piperazin-1-yl]sulfonylphenyl]-4-[[3-[(dimethylamino)methyl]azetidin-1-yl]methyl]pyrrolidin-2-one]",48.8,2.64,5.27
"NC1CC(=O)N(c2ccc(S(=O)(=O)N3CCN(c4cc(C(F)(F)C5COC5)cc(Cl)n4)CC3)cc2)C1 (stereo not drawn) [Example 97, 4-Amino-1-[4-[4-[6-chloro-4-[difluoro(oxetan-3-yl)methyl]-2-pyridyl]piperazin-1-yl]sulfonylphenyl]pyrrolidin-2-one]",88.6,0.85,1.27
"NC1CC(=O)N(c2ccc(S(=O)(=O)N3CCN(c4cc(S(=O)(=O)C5CC5)cc(Cl)n4)CC3)cc2)C1 (stereo not drawn) [Example 69, 4-Amino-1-[4-[4-(6-chloro-4-cyclopropylsulfonyl-2-pyridyl)piperazin-1-yl]sulfonylphenyl]pyrrolidin-2-one]",746,13.5,6.75
"N[C@H]1CN(c2ccc(S(=O)(=O)N3CCN(c4cc(C(F)(F)F)cc(Cl)n4)CC3)cc2)C1=O [Example 7, (3S)-3-amino-1-[4-[4-[6-chloro-4-(trifluoromethyl)-2-pyridyl]piperazin-1-yl]sulfonylphenyl]azetidin-2-one]",63.3,3.78,5.66
"O=C1O[C@H]2CNC[C@H]2N1c1ccc(S(=O)(=O)N2CCN(c3cc(C(F)(F)F)cc(Cl)n3)CC2)cc1 [Example 15, (3aR,6aS)-3-[4-[4-[6-chloro-4-(trifluoromethyl)-2-pyridyl]piperazin-1-yl]sulfonylphenyl]-4,5,6,6a-tetrahydro-3aH-pyrrolo[3,4-d]oxazol-2-one]",95.9,1.01,2.02
"NC1CC(=O)N(c2ccc(S(=O)(=O)N3CCN(c4cc(C(F)(F)c5ccccc5)cc(Cl)n4)CC3)cc2)C1 (stereo not drawn) [Example 73, 4-Amino-1-[4-[4-[6-chloro-4-[difluoro(phenyl)methyl]-2-pyridyl]piperazin-1-yl]sulfonylphenyl]pyrrolidin-2-one]",32,0.44,0.44
"NCC1COC(=O)N1c1ccc(S(=O)(=O)N2CCN(c3cc(C(F)(F)F)cc(Cl)n3)CC2)cc1 (stereo not drawn) [Example 6, 4-(Aminomethyl)-3-[4-[4-[6-chloro-4-(trifluoromethyl)-2-pyridyl]piperazin-1-yl]sulfonylphenyl]oxazolidin-2-one]",44.2,1.98,1.98
"O=C1CC(N2C[C@@H]3C[C@H]2CN3)CN1c1ccc(S(=O)(=O)N2CCN(c3cc(C(F)(F)F)cc(Cl)n3)CC2)cc1 (stereo partly drawn) [Example 55, 1-[4-[4-[6-Chloro-4-(trifluoromethyl)-2-pyridyl]piperazin-1-yl]sulfonylphenyl]-4-[(1S,4S)-2,5-diazabicyclo[2.2.1]heptan-2-yl]pyrrolidin-2-one]",51.3,3.88,7.77
"CO[C@@H]1OC(C2OC(=O)N(c3ccc(S(=O)(=O)N4CCN(c5cc(C(F)(F)F)cc(Cl)n5)CC4)cc3)C2C)[C@@H](O)[C@H]1O (stereo partly drawn) [Example 22, 3-[4-[4-[6-Chloro-4-(trifluoromethyl)-2-pyridyl]piperazin-1-yl]sulfonylphenyl]-5-[(3S,4R,5R)-3,4-dihydroxy-5-methoxy-tetrahydrofuran-2-yl]-4-methyl-oxazolidin-2-one]",< 3.14,1.99,1.99
"CC1(C)C(=O)N(c2ccc(S(=O)(=O)N3CCN(c4cc(C(F)(F)F)cc(Cl)n4)CC3)cc2)CC1N (stereo not drawn) [Example 5, 4-Amino-1-[4-[4-[6-chloro-4-(trifluoromethyl)-2-pyridyl]piperazin-1-yl]sulfonylphenyl]-3,3-dimethyl-pyrrolidin-2-one]",154,8.08,16.1
"O=C1OC(CN2C[C@@H](O)[C@@H](O)C2)CN1c1ccc(S(=O)(=O)N2CCN(c3cc(C(F)(F)F)cc(Cl)n3)CC2)cc1 (stereo partly drawn) [Example 30, 3-[4-[4-[6-Chloro-4-(trifluoromethyl)-2-pyridyl]piperazin-1-yl]sulfonylphenyl]-5-[[cis-3,4-dihydroxypyrrolidin-1-yl]methyl]oxazolidin-2-one]",14.9,2.01,4.02
"O=C1CC(N2C[C@@H](O)[C@@H](O)C2)CN1c1ccc(S(=O)(=O)N2CCN(c3cc(C(F)(F)F)cc(Cl)n3)CC2)cc1 (stereo partly drawn) [Example 48, 1-[4-[4-[6-Chloro-4-(trifluoromethyl)-2-pyridyl]piperazin-1-yl]sulfonylphenyl]-4-[(3S,4R)-3,4-dihydroxypyrrolidin-1-yl]pyrrolidin-2-one]",6.78,1.84,3.69
"N[C@@H]1CC(=O)N(c2ccc(S(=O)(=O)N3CCN(c4cc(C(F)(F)[C@@H]5CCCNC5)cc(Cl)n4)CC3)cc2)C1 [Example 107, (4R)-4-amino-1-[4-[4-[6-chloro-4-[difluoro-[(3R)-3-piperidyl]methyl]-2-pyridyl]piperazin-1-yl]sulfonylphenyl]pyrrolidin-2-one]",19.3,2.85,5.7
"NC1CC(=O)N(c2ccc(S(=O)(=O)N3CCN(c4cc(C(F)(F)c5cncnc5)cc(Cl)n4)CC3)cc2)C1 (stereo not drawn) [Example 92, 4-Amino-1-[4-[4-[6-chloro-4-[difluoro(pyrimidin-5-yl)methyl]-2-pyridyl]piperazin-1-yl]sulfonylphenyl]pyrrolidin-2-one]",95.7,2.12,4.24
"NC1CCN(c2ccc(S(=O)(=O)N3CCN(c4cc(C(F)(F)F)cc(Cl)n4)CC3)cc2)C1=O (stereo not drawn) [Example 8, 3-Amino-1-[4-[4-[6-chloro-4-(trifluoromethyl)-2-pyridyl]piperazin-1-yl]sulfonylphenyl]pyrrolidin-2-one]",117,3.86,7.72
